Test results reported in patent US8299124B2, “Aqueous intraocular penetration-promoting eye drop” (Senju Pharmaceutical Co., Ltd., priority 2004, dated 2012).

What was measured:
[1] = pH 7.8
[2] = test system: intraocular inflammation after anterior chamber puncture; test: Medicinal efficacy test in a model rabbit of anterior chamber puncture; type: in vivo, Male Dutch rabbits; conditions: after anterior chamber puncture in rabbits
Procedure: The concentration of said medicament in the anterior chamber can be measured by the HPLC method for the anterior aqueous humor collected through anterior chamber puncture, as shown in Experimental Example 1 (Penetration Test of a Medicament in the Aqueous Humor) described below. Male Dutch rabbits (Biotech Co., Ltd) with a body weight of about 2 kg was bred and acclimatized under the condition that the temperature was 23±2° C. and the humidity was 55±10%. On the day of the test, the flare value of anterior chamber in the rabbits was determined by a laser flare cell meter (FC-1000, Kowa Company, Ltd.). […] The eye drops of Formulations 4 to 6 in Table 4 were prepared and used. At 30 minutes before the puncture of the anterior chamber, 1,000 U/kg of heparin (Heparin sodium injection, Ajinomoto Co., Inc.) was administered into the rabbit's ear vein. […] The flare value (photon count/msec) in the anterior chamber was determined 30 minutes after the puncture of anterior chamber using a laser flare cell meter (FC-1000, Kowa Company, Ltd.). […] An inhibition rate of inflammation after the puncture of anterior chamber was calculated according to the following equation. […]

Compound | Octanol-water partition coefficient of 2-amino-3-(4-bromobenzoyl)phenylacetic acid [1] | concentration in the anterior aqueous humor at which the intraocular inflammation can be inhibited by at least not less than about 25% (therapeutically effective concentration) [2]
Nc1c(CC(=O)[O-])cccc1C(=O)c1ccc(Br)cc1.Nc1c(CC(=O)[O-])cccc1C(=O)c1ccc(Br)cc1.O.O.O.[Na+].[Na+] [Control, Sodium 2-amino-3-(4-bromobenzoyl)phenylacetate 3/2 hydrate, reference compound] | 0.60 | 
Nc1c(CC(=O)O)cccc1C(=O)c1ccc(Br)cc1 [2-Amino-3-(4-bromobenzoyl)phenylacetic acid] |  | not less than 1.5 ng/mL
